Assay results reported in PubChem BioAssay AID489040 (Sanford-Burnham Center for Chemical Genomics, 2010).
Activity calls are given as the source filed them.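 Rule for the calls: active = mean half-maximal activating concentration from the dose-response fit at or below a set limit; inactive = the rest.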

The molecules below were run against CHO-XBP1 luciferase reporter, IRE1-XBP1 UPR activation (assay: XBP1 luciferase reporter activation – CHO-XBP1 cells, luminescence, counter-screen for apoptotic UPR arm activators, dose response (AID 489040);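 note: reporter read after six hours of compound exposure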).

Compound | EC50
COc1ccc(-c2nc(-c3ccccc3)nc(Cl)c2C#N)cc1 | inactive
S=C1SCN(Cc2ccccn2)CN1Cc1ccco1 | > 80 µM (inactive)
CN(C)CC(C(=O)c1ccccc1)c1ccccc1 (centres undefined) | > 80 µM (inactive)
CC1=CC(=O)C(C(C)C)=C/C1=N/OC(=O)c1cccc([N+](=O)[O-])c1 | > 80 µM (inactive)
COc1ccccc1N=c1oc2c(OC)cccc2cc1C(=O)NCc1ccco1 | inactive
CCOC(=O)c1sc(NC(=S)NC(=O)c2ccccc2)c(C(=O)OCC)c1C | > 80 µM (inactive)
Cc1cccc(-n2ncc(Cl)c(Cl)c2=O)c1 | > 80 µM (inactive)
CN=c1scc(-c2ccco2)n1/N=C/c1ccc(O)c(O)c1 | > 80 µM (inactive)
Cc1ccc(Cc2cnc(NC(=O)/C(C#N)=C/c3ccc(-c4ccc([N+](=O)[O-])cc4)o3)s2)cc1 | inactive
CC(C)c1nnc(NC(=O)CCS(=O)(=O)c2nc(-c3cccs3)cc(C(F)(F)F)n2)s1 | > 80 µM (inactive)
C/C(=N\NC(=O)c1ccc(Cl)c(Cl)c1)c1ccccn1 | > 80 µM (inactive)
O=C(Nc1nc(-c2ccccn2)cs1)c1cc(Cl)ccc1[N+](=O)[O-] | > 80 µM (inactive)
CCCCn1c(/C=N/Nc2nc3ccccc3[nH]2)nc2ccccc21 | > 80 µM (inactive)
COc1ccc(C(=O)Nc2ccccc2C(=O)N/N=C/c2ccccn2)cc1OC | > 80 µM (inactive)
CCOC(=O)C(=CNc1nc(-c2ccccc2)c(C(=O)Nc2ccc(-c3ccccc3)cc2)s1)C(=O)OCC | inactive
Cc1c(C#N)c(NC(=O)CCl)n(Cc2cccs2)c1C | > 80 µM (inactive)
COc1ccc(-c2oc(NC(=O)CCl)c(C#N)c2-c2ccc(OC)cc2)cc1 | > 80 µM (inactive)
O=C(/C(=C/c1ccc(Cl)cc1)c1nc2ccccc2[nH]1)c1ccccc1 | > 80 µM (inactive)
CCOC(=O)C(CC)(CC)C(=O)/C=C/c1cccc(Br)c1 | > 80 µM (inactive)
O=C1/C(=C/c2ccccc2[N+](=O)[O-])COc2ccccc21 | > 80 µM (inactive)
CCSC1(SCC)N=C(N)C2(C#N)C(c3ccc(OC)c(OC)c3OC)C12C#N (centres undefined) | > 80 µM (inactive)
COc1ccc(OC)c(/C=C/C(=O)N2C(=O)c3cccc(N)c3C2=O)c1 | > 80 µM (inactive)
CS(=O)(=O)Oc1ccc2c(c1)O/C(=C\C=C\c1ccccc1)C2=O | > 80 µM (inactive)
CC1CCC/C=C/C(=O)c2c(O)cc(O)cc2CC(=O)O1 (centres undefined) | > 80 µM (inactive)
O=C(c1ccc(Br)cc1)C(CN1CCOCC1)c1ccccc1 (centres undefined) | > 80 µM (inactive)

Compound | EC50
CC(=O)c1ccc(NC(=O)COC(=O)c2ccccc2N=Nc2ccc(N(C)C)cc2)cc1 | 4.12 µM
CN(C)C(=O)CSc1cccc2cccnc12 | > 80 µM (inactive)
O=[N+]([O-])c1cc(-c2ncccn2)c([N+](=O)[O-])s1 | > 80 µM (inactive)
COc1ccccc1C(=O)NC(=S)NNC(=O)c1sc2ccccc2c1Cl | inactive
CCc1nn(-c2cc(Oc3cccc4ccccc34)nc(-c3ccccc3)n2)c(N)c1C#N | inactive
COC(=O)c1c(NC(=O)c2ccc([N+](=O)[O-])o2)sc2c1CCN(C(C)C)C2 | > 80 µM (inactive)
CCOC(=O)Cc1csc(/N=C/c2c(O)n(-c3ccc(C)c(C)c3)c(=O)c3ccccc23)n1 | 18.3 µM
O=C(CSc1ccccn1)Nc1nonc1[N+](=O)[O-] | > 80 µM (inactive)
CC(C)N1CSC(=S)N(Cc2ccccc2)C1 | > 80 µM (inactive)
C/C(=N\NC(=O)c1cc2ccccc2cc1O)c1ccccn1 | > 80 µM (inactive)
O=S(=O)(Nc1cccc2cccnc12)c1ccccc1 | > 80 µM (inactive)
CN(c1ccccc1)S(=O)(=O)c1cccc(C(=O)NCCc2ccc(O)c(O)c2)c1 | 9.81 µM
CCc1ccc(-n2c(SCC(=O)c3ccc4c(c3)NC(=O)CO4)nc3ccccc3c2=O)cc1 | 10.5 µM
CN(C)CC(CCC(CN(C)C)C(O)(c1ccccc1)c1ccccc1)C(O)(c1ccccc1)c1ccccc1 (centres undefined) | > 80 µM (inactive)
COc1ccc(C(=O)C(CN2CCCC2)c2ccccc2)cc1 (centres undefined) | > 80 µM (inactive)
COc1cc(/C=C/C(=O)N2C(=O)c3cccc(N)c3C2=O)cc(OC)c1OC | > 80 µM (inactive)
O=C(N/N=C(\c1ccccc1)c1ccccn1)c1cccc([N+](=O)[O-])c1 | > 80 µM (inactive)
Cc1cc(C(=O)CCl)c(C)n1CC1COc2ccccc2O1 (centres undefined) | > 80 µM (inactive)
Cc1noc2ncnc(Sc3ccc(Br)cc3)c12 | > 80 µM (inactive)
CCOC(=O)c1c(NC(C)=O)sc2c1CCC(C=O)=C2Sc1ccccc1 | > 80 µM (inactive)
Cc1ccc(/C=C/C(=O)c2ccc([N+](=O)[O-])o2)cc1 | > 80 µM (inactive)
CC(C)N=c1scc(-c2cccs2)n1/N=C/c1ccc(O)c(O)c1O | > 80 µM (inactive)
CCn1cc(C(=O)NC(=S)Nc2sc3c(c2C(=O)OC)CCCCCC3)cn1 | inactive
O=c1c2ccccc2nc(/C=C/c2ccc([N+](=O)[O-])o2)n1-c1ccc(O)cc1 | > 80 µM (inactive)
